Measured values published in article PMC8092228 (mBio, 2021).

Experiments:
[1] = target: T1, LOV-PAS-HK (full-length LOV-HK) (Brucella abortus, UniProt Q2YKK7)
T1 construct: gene BAB2_0652

LOV-PAS = target: T2, LOV-PAS (Brucella abortus, UniProt Q2YKK7)
T2 construct: gene BAB2_0652
T2 sequence (Q2YKK7 15-273 limits assumed): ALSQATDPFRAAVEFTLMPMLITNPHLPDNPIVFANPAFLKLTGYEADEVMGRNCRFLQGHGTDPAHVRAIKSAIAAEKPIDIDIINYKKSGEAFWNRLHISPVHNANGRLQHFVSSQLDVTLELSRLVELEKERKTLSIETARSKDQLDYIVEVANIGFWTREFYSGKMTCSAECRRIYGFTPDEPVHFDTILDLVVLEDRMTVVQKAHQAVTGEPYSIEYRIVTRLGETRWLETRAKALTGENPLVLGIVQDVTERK

T1 sequence (Q2YKK7 15-489 limits assumed): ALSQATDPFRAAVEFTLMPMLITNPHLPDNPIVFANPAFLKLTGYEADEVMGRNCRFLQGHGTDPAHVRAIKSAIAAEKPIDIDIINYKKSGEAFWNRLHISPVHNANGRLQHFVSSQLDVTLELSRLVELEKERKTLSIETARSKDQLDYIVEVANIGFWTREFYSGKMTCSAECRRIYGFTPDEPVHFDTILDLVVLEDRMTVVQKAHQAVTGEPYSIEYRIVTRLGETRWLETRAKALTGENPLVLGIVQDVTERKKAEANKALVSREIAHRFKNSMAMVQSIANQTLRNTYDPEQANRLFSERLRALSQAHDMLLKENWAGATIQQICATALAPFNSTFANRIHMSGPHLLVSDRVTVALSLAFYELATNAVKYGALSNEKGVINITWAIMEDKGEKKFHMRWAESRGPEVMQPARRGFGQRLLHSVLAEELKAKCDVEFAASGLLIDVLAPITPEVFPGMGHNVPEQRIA

Question: Which “X-ray crystal structure 3.25 A” value [1] does the source give for `Cc1cc2nc3c(=O)[nH]c(=O)nc-3n(C[C@H](O)[C@H](O)[C@H](O)COP(=O)(O)O)c2cc1C` [FMN] here?
Answer: the electron densities associated with the FMN chromophores are fused into the protein moiety

Question: What about the “X-ray crystal structure, 2.74 A (dark), 2.80 A (light)” value (LOV-PAS) of the same compound?
Answer: the FMN ligand is clearly separated from the protein moiety in the electron density map
